Source: patent US10544103B2, “5-HT2 antagonists” (ANAMAR AB, priority 2015, dated 2020)

Legend:
5-HT2B receptor [1] = target: T1, 5-HT2B receptor (Homo sapiens, UniProt P41595); experiment: 5-HT2B receptor binding, 3H-LSD ligand displacement assay; settings: for inhibition at 0.001 µM: 0.001 uM compound; for inhibition at 0.01 µM: 0.01 uM compound; for inhibition at 0.1 µM: 0.1 uM compound; for inhibition at 1 µM: 1 uM compound
T1 construct: host or cells: CHO-K1
Method: 5-HT2B receptor binding (performed at Eurofins Panlabs Taiwan, Ltd.) to human receptor protein expressed in CHO-K1 cells was determined in a ligand displacement assay using ^3H-lysergic acid diethylamide (LSD) as radioligand and ketanserine as a standard reference compound. Data is presented as % displacement of radioligand at indicated compound concentrations, see Table 1 and Table 2.

5-HT2B receptor [2] = target: T1, 5-HT2B receptor; experiment: 5-HT2B receptor antagonism, inhibition of 5-HT stimulated IP-1 accumulation (HTRF) in CHO-K1 cells; type: cell-based; settings: % inhibition of 5-HT (5 nM) induced effect
Method: (§1) 5-HT2B receptor antagonism (performed at Eurofins Panlabs Taiwan, Ltd.) was determined in CHO-K1 cells expressing human receptor protein as inhibition of 5-HT (5 nM) stimulated IP-1 accumulation measured by HTRF quantitation. SB 206553 was used as a standard reference compound. The antagonistic response is expressed as % inhibition of the 5-HT induced effect.

5-HT2B receptor [3] = target: T1, 5-HT2B receptor; experiment: 5-HT2B receptor agonism, IP-1 accumulation in CHO-K1 cells without prior 5-HT stimulation; type: cell-based; settings: % of IP-1 accumulation induced by 5-HT (1 uM)
Method: as §1
5-HT2B receptor agonism (performed at Eurofins Panlabs Taiwan, Ltd.) was determined in the same model as described above in Ex. 117. without prior stimulation with 5-HT. The agonistic response is expressed as % of the IP-1 accumulation induced by 5-HT (1 uM) stimulation.

T1 sequence (P41595 whole entry): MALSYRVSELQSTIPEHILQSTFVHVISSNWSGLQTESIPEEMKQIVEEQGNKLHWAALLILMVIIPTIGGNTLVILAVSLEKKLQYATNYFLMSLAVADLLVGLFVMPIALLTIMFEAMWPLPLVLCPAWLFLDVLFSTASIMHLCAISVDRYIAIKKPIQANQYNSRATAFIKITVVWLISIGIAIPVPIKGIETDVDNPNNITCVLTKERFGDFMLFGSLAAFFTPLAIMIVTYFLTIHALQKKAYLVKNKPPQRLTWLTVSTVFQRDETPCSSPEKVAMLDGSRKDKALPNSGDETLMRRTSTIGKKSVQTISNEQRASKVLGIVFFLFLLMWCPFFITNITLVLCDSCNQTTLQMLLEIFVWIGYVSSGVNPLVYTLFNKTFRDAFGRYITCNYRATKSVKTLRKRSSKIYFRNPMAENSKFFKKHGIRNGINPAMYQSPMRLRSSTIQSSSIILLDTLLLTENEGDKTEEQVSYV

Row | Structure (SMILES) | inhibition at 0.001 µM (5-HT2B receptor [1]) [%] | inhibition at 0.01 µM (5-HT2B receptor [1]) [%] | inhibition at 0.1 µM (5-HT2B receptor [1]) [%] | inhibition at 0.0001 µM (5-HT2B receptor [2]) [%] | inhibition at 0.001 µM (5-HT2B receptor [2]) [%] | inhibition at 0.01 µM (5-HT2B receptor [2]) [%] | inhibition at 0.1 µM (5-HT2B receptor [2]) [%] | inhibition at 1 µM (5-HT2B receptor [2]) [%] | activation at 0.0001 µM (5-HT2B receptor [3]) [%] | activation at 0.001 µM (5-HT2B receptor [3]) [%] | activation at 0.01 µM (5-HT2B receptor [3]) [%] | activation at 0.1 µM (5-HT2B receptor [3]) [%] | inhibition at 1 µM (5-HT2B receptor [1]) [%] | inhibition at 10 µM (5-HT2B receptor [1]; 10 uM compound) [%] | activation at 1 µM (5-HT2B receptor [3]) [%] | inhibition at 10 µM (5-HT2B receptor [2]) [%] | activation at 10 µM (5-HT2B receptor [3]) [%]
1 | C[C@@H]1CN(C(=N)NCc2ccccc2)N=C1c1cccc(Cl)c1O (single isomer, unassigned) [Example 76, (R)*—N-Benzyl-3-(3-chloro-2-hydroxyphenyl)-4-methyl-4,5-dihydro-1H-pyrazole-1-carboximidamide] | 91 | 101 | 103 | 79 | 95 | 99 | 99 | 95 | 0 | 1 | 3 | -1 |  |  |  |  | 
2 | C[C@@H]1CN(C(=N)N)N=C1c1ccccc1O (single isomer, unassigned) [Example 38] | 19 | 76 | 98 | 23 | 27 | 75 | 100 | 102 | -2 | -1 | -2 | 0 | 102 | 104 | -2 |  | 
3 | N=C(NCc1ccccc1)N1CCC(c2ccccc2Cl)=N1 [Example 21, N-Benzyl-3-(2-chlorophenyl)-4,5-dihydro-1H-pyrazole-1-carboximidamide] |  |  | 59 |  | -6 | 10 | 41 | 104 |  | 3 | -5 | -9 | 96 |  | -6 | 113 | -13
4 | COc1ccccc1C1=NN(C(=N)N)CC1 [Example 1, 3-(2-Methoxyphenyl)-4,5-dihydro-1H-pyrazole-1-carboximidamide] |  |  |  |  |  | 2 | 0 | 72 |  |  | -1 | -8 |  |  | -5 | 107 | -1
5 | CCOC(=O)NC(=N)N1CC(C)C(c2cccc(Cl)c2O)=N1 (stereo not drawn) [Example 119, Ethyl ((3-(3-chloro-2-hydroxyphenyl)-4-methyl-4,5-dihydro-1H-pyrazol-1-yl)(imino)methyl)carbamate] |  | 50 | 89 |  |  |  |  |  |  |  |  |  | 99 |  |  |  | 
6 | N=C(N)N1CCC(c2cccc3ccsc23)=N1 [Example 10, 3-(Benzo[b]thiophen-7-yl)-4,5-dihydro-1H-pyrazole-1-carboximidamide] |  |  | 75 |  |  |  |  |  |  |  |  |  | 95 |  |  |  | 
7 | CC1CC(c2ccccc2Cl)=NN1C(=N)N (stereo not drawn) [Example 25, 3-(2-Chlorophenyl)-5-methyl-4,5-dihydro-1H-pyrazole-1-carboximidamide] |  |  | 54 |  |  |  |  |  |  |  |  |  | 91 |  |  |  | 
8 | CNC(=N)N1CCC(c2ccccc2O)=N1 [Example 20, 3-(2-Hydroxyphenyl)-N-methyl-4,5-dihydro-1H-pyrazole-1-carboximidamide] |  |  | 41 |  |  |  |  |  |  |  |  |  | 89 |  |  |  | 
9 | CC1CN(C(=N)NCc2ccccc2)N=C1c1cccc(Cl)c1O (stereo not drawn) [Example 75, N-Benzyl-3-(3-chloro-2-hydroxyphenyl)-4-methyl-4,5-dihydro-1H-pyrazole-1-carboximidamide] | 76 | 97 |  |  |  |  |  |  |  |  |  |  |  |  |  |  | 
10 | Cc1c(C2=NN(C(=N)N)C(C)C2)oc2ccccc12 (stereo not drawn) [Example 28, 5-Methyl-3-(3-methylbenzofuran-2-yl)-4,5-dihydro-1H-pyrazole-1-carboximidamide] |  |  | 63 |  |  |  |  |  |  |  |  |  | 95 |  |  |  | 
